Laboratory results: paper PMC6321136, “Combined In Vitro Studies and in Silico Target Fishing for the Evaluation of the Biological Activities of Diphylleia cymosa and Podophyllum hexandrum” (Molecules, 2018)
In brackets after ≈: the same amount, converted by molar mass.

Legend:
[1] = Thiobarbituric acid reactive substances (TBARS) assay; design: species or system bovine
Experimental: The evaluation of antioxidant activity using the TBARS assay, with adaptations. Briefly, the samples were solubilized in methanol (50.0 to 31.25 μg/mL) and a portion of 25 μL of each extract solution was added to 10 mL test tubes in triplicate (two reaction tubes and one control). The tubes corresponding to the blank, negative and positive controls were prepared by adding 25 μL of deionized water, MeOH or propylgalate (Sigma, St. Louis, MO, USA, 0.1 mM), respectively. The phospholipid liposomes were prepared using bovine brain extract type VII (Sigma Aldrich, St. Louis, MO, USA, 10 mg/mL) in phosphate buffered saline (PBS) solution. The suspension was subjected to an ultrasonic bath until the formation of the liposomes. […] The butanolic phase was removed and transferred to a 96-well microplate, and the absorbance was recorded on a Multiskan Go microplate reader (Thermo Scientific, Whaltham, MA, USA) at 532 nm. The percentage of inhibition (%I) of lipid peroxidation was calculated as: %I = ((AC − AS)/AC) × 100 where AC is the absorbance of control, AS is the absorbance of samples. Assays were performed in triplicate and IC50 values were determined by non-linear regression using GraphPad Prism, version 6.0 (GraphPad Software, San Diego, CA, USA). […]

AChE [2] = test system: AChE; design: method as in Itoh et al. [85]; settings: 3 mg/kg; ref Itoh et al. [85]; cited from earlier work
AChE [3] = test system: AChE; design: method as in El-Hassan et al. [86]; settings: ref El-Hassan et al. [86]; cited from earlier work
[4] = β-Carotene/linoleic acid co-oxidation assay
Experimental: The evaluation of the antioxidant activity using the β-carotene/linoleic acid co-oxidation system was performed according to Duarte-Almeida et al., with adaptations. The extracts were solubilized in MeOH (2.2 mg/mL) and further diluted to concentrations ranging from 3.125 to 200 μg/mL. An aliquot of 25 μL of sample solutions were added in the 96-well microplate. 25 mg of linoleic acid and 100 mg Tween 20 (Sigma, St. Louis, MO, USA) were added to a round-bottom flask containing 1 mL of a β-carotene solution (1 mg/mL, Sigma, St. Louis, MO, USA) in chloroform. The latter was removed in a rotatory evaporator and, then, 50 mL of aerated water was added to the flask, affording the β-carotene emulsion. Portions of 250 μL of the freshly prepared emulsion were added to the wells corresponding to the odd columns of a microplate. […] Readings were performed immediately at 470 nm. After the first reading, the microplate was incubated at 45 °C and the kinetic cycle was performed with readings at 15 min intervals for a total of 120 min. The antioxidant activity was expressed as % of inhibition of lipid peroxidation (%I), using the formula (I% = Ac (initial abs − Final abs) − Aam (final abs − Initial abs)/Ac × 100). Assays were performed in triplicate and IC50 values were determined by non-linear regression using GraphPad Prism, version 6.0 (GraphPad Software, San Diego, CA, USA).

[5] = target: T1, AChE from Electropardus electricous type VI-S (Electrophorus electricus, UniProt O42275); assay: AChE inhibition microplate assay (Ellman); assay type: biochemical; settings: 400 μg/mL; read-out: Inhibition of AChE Microplate (%I)
T1 construct: purchased Sigma-Aldrich, St. Louis, MO, USA type VI-S (catalogue number not given)
T1 sequence (O42275 24-633): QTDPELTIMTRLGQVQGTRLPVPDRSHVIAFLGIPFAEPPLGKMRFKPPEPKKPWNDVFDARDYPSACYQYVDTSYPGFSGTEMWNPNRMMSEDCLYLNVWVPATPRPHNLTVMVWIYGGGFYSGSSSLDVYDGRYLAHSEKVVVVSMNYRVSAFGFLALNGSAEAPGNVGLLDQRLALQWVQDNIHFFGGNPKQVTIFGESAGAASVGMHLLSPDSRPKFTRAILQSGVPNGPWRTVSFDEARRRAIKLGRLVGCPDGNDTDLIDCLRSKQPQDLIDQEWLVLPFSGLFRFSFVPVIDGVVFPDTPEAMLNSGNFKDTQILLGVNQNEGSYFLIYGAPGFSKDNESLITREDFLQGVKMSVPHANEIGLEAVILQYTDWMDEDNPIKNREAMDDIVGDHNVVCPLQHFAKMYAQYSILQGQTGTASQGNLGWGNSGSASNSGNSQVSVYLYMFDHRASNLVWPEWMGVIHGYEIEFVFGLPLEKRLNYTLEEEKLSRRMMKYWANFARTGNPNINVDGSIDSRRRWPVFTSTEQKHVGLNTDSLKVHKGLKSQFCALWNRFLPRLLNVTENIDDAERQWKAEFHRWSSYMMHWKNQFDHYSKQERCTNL
Experimental: AChE inhibition assay was performed on a 96-well microplate according to Ellman’s method with adaptations. Initially, the extracts were solubilized on MeOH, at 20 mg/mL, and diluted to 4 mg/mL using Tris/HCl buffer solution (50 mM, pH 8.0). A portion of 25 µL of the samples (4 mg/mL) were added to the wells of the microplate, as well as 50 μL of 0.1% BSA solution in Tris/HCl Buffe (pH 8.0), 125 μL of DTNB in Tris/HCl (3 mM) containing NaCl (10 mM) and MgCl2 (20 mM). Subsequently, 25 μL of the ATCI aqueous solution (15 mM) was added to all wells. Then, a background reading was performed at 405 nm using microplate reader (Multiskan Go, Thermo Scientific, Whaltham, MA, USA). The enzymatic reaction was initiated after the addition of 25 µL of AChE solution (AChE from Electropardus electricous type VI-S, 0.2 U/mL, Sigma-Aldrich, St. Louis, MO, USA) in Tris/HCl buffer (50 mM, pH 8.0) containing 0.1% BSA. The kinetic cycle was performed in a period of 25 min, with readings at 5 min intervals, at 405 nm. Physostigmine (Eserine, Sigma, St. Louis, MO, USA) was employed as the positive control. […] The assay was performed in triplicate and the % of inhibition (%I) was calculated according to the following equation: %I = [(a − b)/a] × 100, where a = ΔA/min of control; b = ΔA/min of test sample; ΔA = change in absorbance between time x and time zero. […]

[6] = target: T2, acetylcholinesterase enzyme (Electropardus electricous type VI-S) (Electrophorus electricus, UniProt O42275); assay: AChE bioautographic assay (TLC); assay type: biochemical; design: key: -: not active; +: slight inhibition; ++++: strong inhibition; settings: intensity of white bands
T2 construct: purchased Sigma-Aldrich, St. Louis, MO, USA type VI-S (catalogue number not given)
T2 sequence (O42275 24-633): as above
Experimental: The bioautographic assay was performed by thin layer chromatography (TLC) according to the method proposed by Marston, Kissling and Hostettman. The extracts were solubilized in methanol (Merck) at 20 mg/mL, and a portion of 10 μL of this solution was applied on a TLC plate (silica gel 60 F254, Merck, Darmstadt, Germany), which was eluted with CHCl3:MeOH (9:1). The acetylcholinesterase enzyme (Electropardus electricous type VI-S, Sigma-Aldrich, St. Louis, MO, USA) solution was prepared by diluting 1 KU of the enzyme in 30 mL of Tris/HCl buffer, pH 7.8, with the addition of 30 mg of bovine serum albumin (BSA). The enzyme solution was sprayed on the TLC plate and incubated in a humid chamber at 37 °C for 20 min. The substrate solution was prepared using 1-naphthyl acetate (2.5 mg/mL) and Fast Blue B salt (2.5 mg/mL), and sprayed on the TLC plate after the incubation period. […] The result was expressed by the intensity of the white bands observed.

[7] = DPPH radical scavenger activity
Experimental: The evaluation of the antioxidant activity using the 2,2-diphenyl-1-picrylhydrazyl radical (DPPH) was performed according to the method proposed by Mensor et al., with adaptations. The samples were dissolved in MeOH at concentrations ranging from 1.0 to 200 μg/mL. A portion of 250 μL of each sample was added to a 96-well microplate. MeOH and pyrogallol (50 µg/mL) were employed as negative and positive controls, respectively. Then, 100 μL of either MeOH (blank wells) or DPPH solution (120 μg/mL, reaction wells) was added to the microplate. The reading was performed on a microplate reader (EL808IU-Biotek model, Biotek, Winooski, VT, USA), at 5 min intervals for a total of 45 min, at 515 nm. The percentage of radical scavenging activity (%RSA) was calculated using the following equation: % RSA = ((AC − AS)/AC) × 100, where AC is the absorbance of control and AS is the absorbance of samples taken at 35 min. The results were expressed in EC50 (effective concentration for 50% capture of the radicals) determined by non-linear regression using GraphPad Prism, version 6.0.

For CCCOC(=O)c1cc(O)c(O)c(O)c1 [Propylgalate, propylgalate, reference compound], the “Antioxidant Activity (IC50-µg/mL) TBARS Assay” value [1] was less than 20 µg/mL.

In the case of COc1cc2c(c(OC)c1OC)-c1c(cc(OC)c(OC)c1OC)C[C@](C)(O)[C@@H](C)C2 [Schisandrin], the activity in vivo (AChE [2]) is given as “active”.

For COc1cc([C@H]2OC[C@H]3[C@@H]2CO[C@@H]3c2cc(OC)c(O)c(OC)c2)cc(OC)c1O [Syringaresinol], the “IC50 AChE inhibition in vitro” value (AChE [3]) is given as 200 µg/mL (≈ 478 µM).

For O=c1c(O)c(-c2ccc(O)c(O)c2)oc2cc(O)cc(O)c12 [Quercetin, quercetin, reference compound], the “Antioxidant Activity (IC50-µg/mL) β-Carotene/linoleic Acid” value [4] was 0.3 ± 0.1 µg/mL.

For CNC(=O)Oc1ccc2c(c1)[C@]1(C)CCN(C)[C@@H]1N2C [Physostigmine, reference compound], the inhibition at 400 µg/mL [5] was 89.8 ± 1.16% and the “Inhibition of AChE TLC” value [6] was “++++”.

In the case of Oc1cccc(O)c1O [Pyrogallol, pyrogallol, reference compound], the “Antioxidant Activity (IC50-µg/mL) DPPH Radical Sequestration” value [7] is reported as 1.14 ± 0.15 µg/mL.
